Assay results published in publication PMC6518372, “An enzymatically stable GIP/xenin hybrid peptide restores GIP sensitivity, enhances beta cell function and improves glucose homeostasis in high-fat-fed mice” (Diabetologia, 2016).

Columns and labels:
purified porcine DPP-4 = purified porcine DPP-4 (Sus scrofa, UniProt P22411); assay: DPP-4 degradation / in vitro DPP-4 half-life; details: 20 μg peptide, 5 mU purified DPP-4, up to 12 h, HPLC
Method: Peptide (20 μg) DPP-4 degradation profiles (5 μl purified DPP-4, 5 mU; Sigma-Aldrich, UK) were assessed as described previously.
For calculation of experimental molecular masses, peptide samples (1 µg) were mixed with α-cyano-4-hydroxycinnamic acid (1 µg) and applied to a Voyager-DE BioSpectrometry Workstation and mass-to-charge (m/z) ratio verses peak intensity recorded by MALDI-TOF mass spectrometry. DPP-4 half-life was assessed by incubating peptides (37°C in 50 mmol/L TEA-HCl; pH 7.8) with 5 mU purified porcine DPP-4 for 0, 1, 2, 4, 8 and 12 h. Degradation profiles were obtained using rp-HPLC analysis and HPLC peak area data used to calculate percentage intact peptide remaining at each time point.

lean control mice [1] = assay: Acute cumulative food intake in lean mice; format: in vivo, mouse; details: 250 nmol/kg i.p., 18 h fasted lean mice, 180 min post injection, vs saline
Method: (§1) Animals Acute animal studies were conducted in male NIH Swiss mice (12-14 weeks old, Harlan Ltd, UK) maintained on a standard rodent maintenance diet (10% fat, 30% protein and 60% carbohydrate, Trouw Nutrition, UK). Prior to commencement of longer term studies, all animals, except lean controls that continued on rodent maintenance diet, were maintained on a high-fat diet (45% fat, 35% carbohydrate and 20% protein, Special Diet Services, UK) for 12 weeks. This diet […]
(§2) individually in an air-conditioned room at 22 ± 2 °C with a 12 h light:12 h dark cycle and had free access to food and water. Animal experiments were carried out in accordance with the UK Animals (Scientific Procedures) Act 1986.
(§3) Acute in vivo effects in lean mice For food intake studies, fasted (18 h) mice were given intraperitoneal (i.p) injections of peptides at a dose of 25, 100 or 250 nmol/kg bw. Mice were then allowed free access to normal chow for 180 mins and cumulative food intake measured. For glucose homeostasis and […]

lean control mice [2] = assay: Acute glucose-lowering and insulin-releasing effects in lean mice; format: in vivo, mouse; details: 25 nmol/kg i.p. with glucose 18 mmol/kg, non-fasted lean mice
Method: Specific information on acute feeding, glucose homeostasis and insulin-secretory studies is given in ESM Methods. To assess the impact of GIP and neurotensin receptor activation on (DAla^2)GIP/xenin-8-Gln-induced glucose-lowering and insulin-secretory actions in mice, (DAla^2)GIP/xenin-8-Gln was administered by i.p. injection (25 nmol/kg body weight) in combination with glucose (18 mmol/kg) in the absence and presence of GIP(6-30)Cex-K^40[Pal] and SR142948A (both at 25 nmol/kg), and glucose and insulin were measured as described above. In a final series of experiments, test peptides (25 nmol/kg) or saline vehicle (0.9% wt/vol. NaCl) were injected 4 h before a glucose load (18 mmol/kg) in non-fasted mice and blood glucose and plasma insulin measured as above. […]
as §1, §2, §3

high-fat-fed mice [3] = assay: Subchronic 21 day twice-daily treatment: energy intake, body weight, body composition, non-fasted glucose and insulin; format: in vivo, mouse; details: 25 nmol/kg i.p. twice daily
Method: (§4) Twice-daily (09:30 and 17:30 hours) i.p. injections of saline vehicle, (DAla^2)GIP or (DAla^2)GIP/xenin-8-Gln hybrid (both at 25 nmol/kg) were administered for 21 days in high-fat-fed mice. Energy intake and body weight were monitored daily and non-fasting blood glucose and plasma insulin concentrations were assessed at 3 day intervals. On day 21, a non-fasted 24 h glucose profile was conducted. At the end of the treatment period, i.p. glucose tolerance (18 mmol/kg), biological response to GIP (18 mmol/kg glucose in combination with native GIP [25 nmol/kg], i.p.) and insulin sensitivity (15 U/kg; i.p.) tests were performed. Terminal analysis included measurement of total body fat and lean mass by dual-energy X-ray absorptiometry (DEXA) scanning (Piximus Densitometer; Inside Outside Sales, Fitchburg, WI, USA) and extraction of pancreatic tissue for analysis as detailed below.
Blood samples were collected from the cut tip on the tail vein of conscious mice into chilled fluoride/heparin glucose micro-centrifuge tubes (Sarstedt, Numbrecht, Germany). Blood glucose was measured directly using a hand-held Ascencia Contour blood glucose meter (Bayer Healthcare, Newbury, UK). Plasma and pancreatic insulin was assayed by a modified dextran-coated charcoal radioimmunoassay.
In vitro insulin release studies Cells were seeded at a density of 150,000 cells/well in 24-well plates (Nunc, Roskilde, Denmark) and allowed to attach overnight at 37 °C. Culture medium was removed and cells were pre-incubated in Krebs–Ringer bicarbonate buffer (containing 0.5% (w/v) BSA, pH 7.4) supplemented with 1.1 mmol/l glucose for 40 min at 37 °C. Following the pre-incubation, experiments (n=8) were performed in presence of glucose (5.6 or 16.7 mmol/l) with a […]
incubations, aliquots of assay buffer were collected from each well and stored at -20 °C prior to […]
as §1, §2, §3

high-fat-fed mice [4] = assay: Insulin sensitivity test after 21 day treatment; format: in vivo, mouse; details: insulin 15 U/kg i.p., non-fasted high-fat-fed mice after 21 days at 25 nmol/kg twice daily
Method: as §4
Fig. 4 Effects of twice-daily administration of (DAla^2)GIP and (DAla^2)GIP/xenin-8-Gln on insulin sensitivity and pancreatic insulin content in high-fat-fed mice. […] Blood glucose was measured (a), area above the curve (AAC) was calculated using identical baseline subtraction for each group (b) and pancreatic insulin content was measured by RIA (c). […]

[5] = 21 days, high-fat-fed mice, vs high-fat-fed controls

purified porcine DPP-4, sequence (P22411 whole entry): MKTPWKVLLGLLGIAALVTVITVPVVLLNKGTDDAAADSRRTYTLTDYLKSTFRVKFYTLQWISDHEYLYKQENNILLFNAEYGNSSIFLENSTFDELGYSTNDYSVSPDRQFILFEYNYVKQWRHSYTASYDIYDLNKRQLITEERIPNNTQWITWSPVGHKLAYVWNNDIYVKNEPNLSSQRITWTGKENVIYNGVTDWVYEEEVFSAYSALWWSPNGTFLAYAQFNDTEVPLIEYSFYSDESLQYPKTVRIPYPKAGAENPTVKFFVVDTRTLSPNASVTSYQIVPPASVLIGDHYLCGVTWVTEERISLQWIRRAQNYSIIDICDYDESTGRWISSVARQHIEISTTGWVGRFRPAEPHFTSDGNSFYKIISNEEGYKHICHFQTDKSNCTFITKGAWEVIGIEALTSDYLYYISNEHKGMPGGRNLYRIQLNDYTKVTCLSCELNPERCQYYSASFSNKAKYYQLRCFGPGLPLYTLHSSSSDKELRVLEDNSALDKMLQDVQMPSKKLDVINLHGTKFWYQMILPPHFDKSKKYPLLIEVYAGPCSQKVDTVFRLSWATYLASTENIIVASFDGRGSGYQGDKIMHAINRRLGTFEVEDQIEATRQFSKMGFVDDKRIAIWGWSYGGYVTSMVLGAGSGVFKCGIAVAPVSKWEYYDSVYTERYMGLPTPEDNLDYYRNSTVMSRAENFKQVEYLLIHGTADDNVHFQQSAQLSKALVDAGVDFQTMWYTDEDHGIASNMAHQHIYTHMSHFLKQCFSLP

CC[C@H](C)[C@H](NC(=O)[C@H](CO)NC(=O)[C@H](Cc1ccc(O)cc1)NC(=O)[C@H](CC(=O)O)NC(=O)[C@H](CO)NC(=O)[C@@H](NC(=O)[C@H](Cc1ccccc1)NC(=O)[C@@H](NC(=O)CNC(=O)[C@H](CCC(=O)O)NC(=O)[C@@H](C)NC(=O)[C@@H](N)Cc1ccc(O)cc1)[C@@H](C)O)[C@@H](C)CC)C(=O)N[C@@H](C)C(=O)N[C@@H](CCSC)C(=O)N[C@@H](CC(=O)O)C(=O)N[C@@H](CCCCN)C(=O)N[C@H](C(=O)N[C@@H](Cc1c[nH]cn1)C(=O)N[C@@H](CCC(N)=O)C(=O)N[C@@H](CCC(N)=O)C(=O)N[C@@H](CC(=O)O)C(=O)N[C@@H](Cc1ccccc1)C(=O)N[C@H](C(=O)N[C@@H](CC(N)=O)C(=O)N[C@@H](Cc1c[nH]c2ccccc12)C(=O)N[C@@H](CC(C)C)C(=O)N[C@@H](CC(C)C)C(=O)N[C@@H](C)C(=O)N[C@@H](CCC(N)=O)C(=O)N[C@@H](CCCCN)C(=O)NCC(=O)N[C@@H](CCCCN)C(=O)N[C@@H](CCCCN)C(=O)N[C@@H](CC(N)=O)C(=O)N[C@@H](CC(=O)O)C(=O)N[C@@H](Cc1c[nH]c2ccccc12)C(=O)N[C@@H](CCCCN)C(=O)N[C@@H](Cc1c[nH]cn1)C(=O)N[C@@H](CC(N)=O)C(=O)N[C@H](C(=O)N[C@H](C(=O)N[C@@H](CCC(N)=O)C(=O)O)[C@@H](C)O)[C@@H](C)CC)C(C)C)[C@@H](C)CC [(DAla^2)GIP]
Stability when incubated in the presence of DPP-4 (purified porcine DPP-4): remained fully intact
Cumulative food intake (lean control mice [1]): all peptides except (DAla^2)GIP induced significant (p < 0.05 to p < 0.01) reductions
Blood glucose (lean control mice [2]; 15 min post injection): significant (p < 0.05) reduction in blood glucose levels
Blood glucose (lean control mice [2]; 30 min post injection, vs glucose alone): significantly (p < 0.05) lowered blood glucose values
Overall AUC blood glucose (lean control mice [2]; vs glucose alone): significantly (p < 0.05) decreased overall AUC blood glucose values
Body weight (high-fat-fed mice [3]; [5]): no significant effect
Cumulative energy intake (high-fat-fed mice [3]; [5]): no significant effect
Non-fasting 24 h blood glucose profile (high-fat-fed mice [3]; day 21, high-fat-fed mice): also reduced, but not to the same extent
Total body fat and lean mass (DEXA) (high-fat-fed mice [3]; day 21, high-fat-fed mice): unaltered
Non-fasted plasma insulin (high-fat-fed mice [3]; day 21, high-fat-fed mice, vs high-fat-fed controls): reduced plasma insulin levels compared with high-fat-fed controls on day 21 but the difference did not reach statistical significance
Non-fasting blood glucose compared with lean controls (high-fat-fed mice [3]; high-fat-fed mice, from day 12 onwards): not significantly different from lean controls
Individual blood glucose levels following exogenous insulin (high-fat-fed mice [4]): reduced, albeit non-significantly
Overall glucose-lowering effect of insulin (area above the curve) (high-fat-fed mice [4]; vs control high-fat mice): significantly (p < 0.001) improved
